Data as given in ChEMBL document CHEMBL3232982, “Cytotoxic properties of D-gluco-, D-galacto- and D-manno-configured 2-amino-2-deoxy-glycerolipids against epithelial cancer cell lines and BT-474 breast cancer stem cells” (2014).
The source made the active and inactive calls. The calls are words filed in the database; no cut-off is given here.

What was measured:
BT-474 [1] = assay: Cytotoxicity against tumorspheres of human BT474 cells assessed as disintegration of tumorspheres at 5 to 20 uM after 6 days by phase contrast microscopy relative to untreated control; assay type: functional, cell-based
[2] = Cytotoxicity against human MIAPaCa2 cells assessed as reduction cell viability after 48 hrs by MTS assay; assay type: functional; details: MIA PaCa-2, 48 h
BT-474 [3] = assay: Cytotoxicity against human BT474 cells assessed as inhibition of spheroids formation at 10 to 20 uM after 6 days by phase contrast microscopy relative to untreated control; assay type: functional, cell-based
PC-3 = assay: Cytotoxicity against human PC3 cells assessed as reduction cell viability after 48 hrs by MTS assay; assay type: functional; details: PC-3, 48 h
[4] = Cytotoxicity against human JIMT1 cells assessed as reduction cell viability after 48 hrs by MTS assay; assay type: functional; details: JIMT-1, 48 h
BT-474 [5] = assay: Cytotoxicity against human BT474 cells assessed as reduction cell viability after 48 hrs by MTS assay; assay type: functional; details: BT-474, 48 h
DU-145 = assay: Cytotoxicity against human DU145 cells assessed as reduction cell viability after 48 hrs by MTS assay; assay type: functional; details: DU-145, 48 h
BT-549 = assay: Cytotoxicity against human BT549 cells assessed as reduction cell viability after 48 hrs by MTS assay; assay type: functional; details: BT-549, 48 h
BT-474 [6] = assay: Cytotoxicity against human BT474 cells assessed as inhibition of cell viability at 10 to 20 uM after 6 days by MTS assay relative to untreated control; assay type: functional, cell-based
BT-474 [7] = assay: Cytotoxicity against tumorspheres of human BT474 cells assessed as inhibition of cell viability at 10 to 20 uM after 6 days by MTS assay relative to untreated control; assay type: functional, cell-based
BT-474 [8] = assay: Cytotoxicity against tumorspheres of human BT474 cells assessed as inhibition of cell viability at 20 uM after 6 days by MTS assay relative to untreated control; assay type: functional; details: BT-474, 144 h
BT-474 [9] = assay: Cytotoxicity against tumorspheres of human BT474 cells assessed as cell viability at 30 uM after 6 days by MTS assay relative to untreated control; assay type: functional; details: BT-474, 144 h, read-out: Activity
BT-474 [10] = assay: Cytotoxicity against human BT474 cells assessed as formation of spheroids with jagged rough edges at 10 to 20 uM after 6 days by phase contrast microscopy relative to untreated control; assay type: functional, cell-based
BT-474 [11] = assay: Cytotoxicity against human BT474 cells assessed as cell viability at 20 uM after 6 days by MTS assay relative to untreated control; assay type: functional; details: BT-474, 144 h, read-out: Activity

SMILES | Activity (BT-474 [1]) | CC50 [2] [µM] | inhibition (BT-474 [3]) | CC50 (PC-3) [µM] | CC50 [4] [µM] | CC50 (BT-474 [5]) [µM] | CC50 (DU-145) [µM] | CC50 (BT-549) [µM] | inhibition (BT-474 [6]) | inhibition (BT-474 [7]) | inhibition at 20 µM (BT-474 [8]) [%] | viability at 30 µM (BT-474 [9]) [%] | Activity (BT-474 [10]) | viability at 20 µM (BT-474 [11]) [%]
CCCCCCCCCCCCCCCCOCC(CO[C@@H]1O[C@H](CO)[C@@H](O)[C@H](O)[C@H]1N)OC (some centres undefined) | Active | 10 | Active | 13.5 | 9 | 8 | 10 | 13 | Active | – | – | – | – | –
CCCCCCCCCCCCCCN [TETRADECYLAMINE] | – | 18.2 | – | 24.6 | 24.8 | 27.1 | 16.8 | 21.7 | – | – | – | – | – | –
CCCCCCCCCCCCCCCCOCC(CO[C@H]1O[C@H](CO)[C@@H](O)[C@H](O)[C@@H]1N)OC (some centres undefined) | – | > 30 | – | > 30 | > 30 | > 30 | > 30 | > 30 | – | – | – | – | – | –
CCCCCCCCCCCCCCCCOCC(CO[C@H]1O[C@H](CO)[C@@H](O)[C@H](O)[C@H]1N)OC (some centres undefined) | Active | 7 | Active | 10.5 | 6 | 6.2 | 7 | 7 | Active | Active | – | – | – | –
CCCCCCCCCCCCCCCCOCC(CO[C@@H]1O[C@H](CO)[C@H](O)[C@H](O)[C@H]1N)OC (some centres undefined) | – | 25.8 | – | > 30 | 24.8 | > 30 | 19.5 | 27.6 | – | – | – | – | – | –
CCCCCCCCCCCCCCCCOCC(CS[C@@H]1O[C@H](CO)[C@H](O)[C@H](O)[C@H]1N)OC (some centres undefined) | – | 20.2 | – | 24.3 | 15.5 | > 30 | 18.8 | 22.2 | – | – | – | – | – | –
CCCCCCCCCCCCCCCCOCC(CS[C@H]1O[C@H](CO)[C@H](O)[C@H](O)[C@H]1N)OC (some centres undefined) | – | 18.8 | – | 15 | 19.1 | 24.4 | 17.2 | 18.3 | – | – | – | – | – | –
CCCCCCCCCCCCCCCCOCC(CO[C@H]1O[C@H](CO)[C@H](O)[C@H](O)[C@H]1N)OC (some centres undefined) | Active | 4.4 | Active | 8 | 4.5 | 6.2 | 4.7 | 6.3 | Active | Active | – | – | – | –
CCCCCCCCCCCCCCCCCCOCC(COP(=O)([O-])OCC[N+](C)(C)C)OC (centres undefined) [EDELFOSINE] | inactive | – | – | – | – | – | – | – | – | – | 30 | 45 | Active | 55
